Test results published in patent US9764059B2, “Chlorhexidine gluconate containing solvent adhesive” (Avery Dennison Corporation, priority 2011, dated 2017).

Columns and labels:
Solubility = format: physicochemical
[1] = cited from earlier work

Compound	solubility in water (Solubility)	solubility in solvents [1]
N=C(NCCCCCCNC(=N)NC(=N)Nc1ccc(Cl)cc1)NC(=N)Nc1ccc(Cl)cc1 [Chlorhexidine base]	low solubility in water	–
N=C(NCCCCCCNC(=N)NC(=N)Nc1ccc(Cl)cc1)NC(=N)Nc1ccc(Cl)cc1.O=C(O)[C@H](O)[C@@H](O)[C@H](O)[C@H](O)CO.O=C(O)[C@H](O)[C@@H](O)[C@H](O)[C@H](O)CO [chlorhexidine gluconate]	–	only soluble in methanol and acetone
